Measurements from patent publication US5556744A, “Methods and compositions for diagnosing and treating certain HIV infected patients” (The Trustees of the University of Pennsylvania, priority 1994, dated 1996).

What was measured:
[1] = test system: HIV-1 infected cells (MN isolate); assay: Anti-syncytial assay (inhibition of HIV-1 MN syncytium formation, SupT1 target cells); assay type: cell-based; conditions: HIV-1 MN, SupT1 cells, 3 days; vs normal human serum
Source text: (§1) The H9 cell line (a cutaneous T lymphoma line) infected by HIV-IIIB [ATCC CRL 8543] was used in the neutralization assay. The H9 cell line infected by HIV-MN was used in the anti-syncytial assays. SupT1 and Hut78 cells were used as the target cell lines for the anti-syncytial and neutralization assays. All cell lines were obtained from the National Institutes of Health AIDS Repository (Bethesda, Md.).
To analyze the effect of the maternal serum samples on HIV-1 fusion, SupT1 cells were used as target cells in an anti-syncytial assay. Dilutions of the different maternal serum samples were made in 96 well plates in RPMI 1640 media containing 10% fetal calf serum at final dilutions of 1:4, 1:8, 1:16, 1:32, 1:64, 1:128, 1:256 or 1:512. HIV-1 infected cells (MN isolate) were then plated in the wells at a density of approximately 10^4 cells per well. SupT1 target cells were then added at 5×10^5 /well and the number of syncytia are determined after 3 days of incubation. Inhibition of syncytium formation by a serum sample was considered significant if the dilution which yielded a 50% reduction in the number of syncytia when compared to control was greater than 1:32. The average number of syncytia in the control (normal human serum) wells at the above dilutions were: 45.5, 48.5, 44, 48, 48.5, 41.5, 42 and 45.5 respectively.

HIV-IIIB viral isolate = assay: Neutralization assay (HIV-IIIB, Hut-78 cells, p24 antigen ELISA); assay type: cell-based, HIV-1 IIIB; set-up: key to Neutralization Activity, Dilution Resulting in ≥50% Inhibition: --: (-) indicates negative (i.e. a dilution of <1:10); conditions: HIV-IIIB, Hut-78 cells, p24 OD450 after 6 days; vs normal human serum
Description: as §1
In a neutralization assay, 20 μl of maternal sera samples was placed in 96 round bottom well plates at final dilutions of 1:10, 1:90 and 1:810 in RPMI. The HIV-IIIB viral isolate was diluted in RPMI to a TCID50 of 100 units/ml. Twenty μl of the virus solution was placed in each well and the plate was incubated for one hour at 4° C. Hut-78 cells were incubated with 2 μg/ml of polybrene for one hour at 37° C. in a CO2 incubator. The HUT-78 cells were washed and resuspended in fresh RPMI to a final concentration of 4×10^6 cells/ml. Ten μl of the cell suspension was added to each well and the plate was incubated for one hour in a 37° C., CO2 incubator.
Fifteen μl of the serum/cell/virus solution was aliquoted to a new plate containing 200 μl of fresh RPMI and incubated for 6 days. After 6 days, 100 μl was used to analyze for p24 antigen. The p24 capture ELISA assay kit (Coulter Corporation, Hialeah, Fla.) was used to perform the measurements.
Further, sera samples at the same dilutions as described above were tested for residual p24 core protein or antibody to insure the results were due only to viral infection.

gp120 peptides = assay: Number of gp120 peptides bound by maternal sera (Examples 3, 4); assay type: binding, HIV-1 IIIB; conditions: Table 8
Description: (§2) Radioimmunoassay (RIA) and enzyme-linked immunosorbent assay (ELISA) were performed by standard methodologies [E. Engvall, Meth. Immunol., 70:419-439 (1980); S. K. Pierce et al, J. Exp. Med., 144:1254-1262 (1976)]. Peptides were dissolved in 0.05M carbonate-bicarbonate buffer (pH 9.6) at a concentration of 10 μg/ml. Fifty μl (500 ng) of the peptides were immobilized in 96 well polyvinylchloride plates (Dynatech Laboratories, Inc.) overnight at 4° C. Plates were washed and non-specific sites were blocked with PBS containing 1% BSA overnight at 4° C.
(§3) Dilutions of HIV positive maternal sera were made in blocking buffer at dilutions of 1:50 and 1:500 and incubated in peptide coated plates overnight at 4° C. Plates were washed with PBS and incubated with 75,000 cpm of ^125 I-labelled goat anti-human IgG. The antibody was iodinated by a chloramine T method [W. V. Williams et al, Proc. Natl. Acad. Sci. USA, 85:6488-6492 (1988)]. Plates were washed, dried and counted in a gamma counter to measure specific binding. Normal human serum (i.e., HIV seronegative) was used as a control.
(§4) Alternatively, ELISA assays were performed in polystyrene plates (Dynatech Laboratories, Inc) in which 0.05% Tween 20 (Sigma Chemical Co.) was included in the washing, blocking and dilution buffers. The secondary antibody used was goat […] Ig conjugated to horseradish peroxidase (HRP) (Sigma Chemical Co). The substrate used for color development was 3,3',5,5' tetramethyl-benzidine dihydrochloride (TMB) (Sigma Chemical Co). Absorbance of samples was measured in a Dynatech MR5000 (Dynatech Laboratories, Inc.) plate reader and expressed as an optical density at wavelength of 450 nm (OD450).
(§5) The results of the binding assays are represented in Tables 3, 4, 6 and 7. The following key is used for the designation of specific binding of the maternal sera samples to the peptides: The minus sign, -, is equivalent to the specific OD450 or cpm of sera sample binding to peptide divided by the specific OD450 or cpm of NHS sample binding to peptide, which value is less than 2. The plus sign, +, is equivalent to the specific OD450 or cpm of sera sample binding to peptide divided by the specific OD450 or cpm of NHS sample binding to peptide, which value is between 2 to 3. The double plus sign, ++, is equivalent to the specific OD450 or cpm of sera sample binding to peptide divided by the specific OD450 or cpm of NHS sample binding to peptide, which value is greater than 3.
(§6) Comparisons of number of peptides which bound maternal serum samples were made between the transmission group and the nontransmission group. The data was analyzed using the unpaired student's test. For the determination of differences in the binding of specific peptides between transmission and non-transmission groups, the Spearman's rank-order correlation test was performed.

gp41 peptides = assay: Number of gp41 peptides bound by maternal sera (Examples 3, 4); assay type: binding, HIV-1 IIIB; conditions: Table 8
Description: as §2, §3, §4, §5, §6

| Substance | Anti-Syncytial Activity, Dilution Resulting in ≥50% Inhibition [1] | Neutralization Activity, Dilution Resulting in ≥50% Inhibition (HIV-IIIB viral isolate) | Number of gp120 Peptides Bound (+/++) (gp120 peptides) | Number of gp41 Peptides Bound (+ or ++) (gp41 peptides) |
| --- | --- | --- | --- | --- |
| 17: gp120 peptide, amino acids 267-282, SEQ ID NO:111 (EEEVVIRSVNFTDNAK) [Peptide 17] | 1:256 | 1:810 | 5 | 4 |
| HP1: gp120 peptide, amino acids 93-107, SEQ ID NO:99 (FNMWKNDMVEQMHED) | 1:64 | -- | 6 | 6 |
| HP2: gp120 peptide, amino acids 98-112, SEQ ID NO:100 (NDMVEQMHEDIISLW) | 1:32 | -- | 4 | 2 |
| HP3: gp120 peptide, amino acids 102-116, SEQ ID NO:101 (EQMHEDIISLWDQSL) | 1:256 | 1:90 | 4 | 2 |
| HP5: gp120 peptide, amino acids 105-117, SEQ ID NO:102 | 1:128 | -- | 4 | 0 |
| HP7: gp120 peptide, amino acids 107-121, SEQ ID NO:103 (DIISLWDQSLKPCVK) | 1:64 | 1:810 | 3 | 3 |
| HP9: gp120 peptide, amino acids 141-155, SEQ ID NO:104 (NSSSGRMIMEKGEIK) | 1:256 | 1:810 | 3 | 1 |
| HP10: gp120 peptide, amino acids 157-171, SEQ ID NO:105 (CSFNISTSIRGKVQK) | 1:256 | -- | 2 | 0 |
